Laboratory results: patent US20150010928A1, “MEANS AND METHODS FOR ASSESSING AN ENDOCRINE DISEASE OR DISORDER” (priority 2012, published 2015)
Marks after values point to notes of the source that are not given here. One block for each molecule: values may come before it.

Tested on: male rats
Test: Plasma metabolite profiling (GC-MS, LC-MS, SPE-LC-MS) in male rats dosed once daily over 28 days (OECD 407)
Format: in vivo, rat
Parameters: key to erythro-Sphingoside (d18:1) / Tricosanoic acid (C23:0) / beta-Sitosterol / Tryptophan: ratio of treated group mean to untreated control group mean
Procedure: Each dose group in the studies consisted of five rats per sex. Additional groups of each 5 male and female animals served as controls. […] All animals of the animal population were kept under the same constant temperature (20-24±3° C.) and the same constant humidity (30-70%). The animals of the animal population were fed ad libitum. The food to be used was essentially free of chemical or microbial contaminants. Drinking water was also offered ad libitum. Accordingly, the water was free of chemical and microbial contaminants as laid down in the European Drinking Water Directive 98/83/EG. The illumination period was 12 hours light followed by 12 hours darkness (12 hours light, from 6:00 to 18:00, and 12 hours darkness, from 18:00 to 6:00). […] The test substances (compounds) in the Tables 1 to 17 below were dosed and administered as described in the Table 18.
In the morning of day 7, 14, and 28, blood was taken from the retroorbital venous plexus from fasted anaesthetized animals. From each animal, 1 ml of blood was collected with EDTA as anticoagulant. The samples were centrifuged for generation of plasma. All plasma samples were covered with a N2 atmosphere and then stored at −80° C. until analysis.
For mass spectrometry-based metabolite profiling analyses plasma samples were extracted and a polar and a non-polar (lipid) fraction was obtained. For GC-MS analysis, the non-polar fraction was treated with methanol under acidic conditions to yield the fatty acid methyl esters. Both fractions were further derivatised with O-methyl-hydroxyamine hydrochloride and pyridine to convert Oxogroups to O-methyloximes and subsequently with a silylating agent before analysis. In LC-MS analysis, both fractions were reconstituted in appropriate solvent mixtures. HPLC was performed by gradient elution on reversed phase separation columns. Mass spectrometric detection which allows target and high sensitivity MRM (Multiple Reaction Monitoring) profiling in parallel to a full screen analysis was applied as described in WO2003073464.
Steroids and their metabolites were measured by online SPE-LC-MS (Solid phase extraction-LC-MS).
Following comprehensive analytical validation steps, the data for each analyte were normalized against data from pool samples. These samples were run in parallel through the whole process to account for process variability. The significance of treatment group values specific for sex, treatmentduration and metabolite was determined by comparing means of the treated groups to the means of the respective untreated control groups using WELCH-test and quantified with treatment ratios versus control and p-values.
The identification of the most important biomarkers per toxicity pattern was done by a ranking of the analytes in the tables below. Therefore the metabolic changes in reference treatments of a given pattern (shown in the table) were compared with changes of the same metabolite in other unrelated treatments. […] The maximum absolute value of the respective TVALUE was taken to indicate the most important metabolite for the pattern.

[1] = male rats, plasma, high dose, day 7
[2] = male rats, plasma, high dose, day 14
[3] = male rats, plasma, high dose, day 28

SMILES: Cc1cccc(C)c1N(Cn1cccn1)C(=O)CCl [Metazachlor]
3-O-Methylsphingosine (d18:1) (m7, high dose, Table 10a): 2.88 *
5-O-Methylsphingosine (d18:1) (m7, high dose, Table 10a): 3.04 *
Cysteine (m7, high dose, Table 10a): 1.07^
Lignoceric acid (C24:0) (m7, high dose, Table 10a): 1.6 *
Nervonic acid (C24:cis[15]1) (m7, high dose, Table 10a): 3.17 *
Oleic acid (C18:cis[9]1) (m7, high dose, Table 10a): 1.09^
Stearic acid (C18:0) (m7, high dose, Table 10a): 1.45 *
alpha-Tocopherol (m7, high dose, Table 10a): 1.71 *
erythro-Sphingoside (d18:1) (m7, high dose, Table 10a): 2.3 *
threo-Sphingosine (d18:1) (m7, high dose, Table 10a): 2.18 *
Oleic acid (C18:cis[9]1) (m7, high dose, Table 10b): 1.09
Phosphatidylcholine (C16:0, C16:0) (m7, high dose, Table 10b): 0.98
Thyroxine (T4) (m7, high dose, Table 10b): 0.98
trans-4-Hydroxyproline (m7, high dose, Table 10b): 0.93
3-O-Methylsphingosine (d18:1) (m14, high dose, Table 10a): 4.31 *
5-O-Methylsphingosine (d18:1) (m14, high dose, Table 10a): 4.66 *
Cysteine (m14, high dose, Table 10a): 0.86
Lignoceric acid (C24:0) (m14, high dose, Table 10a): 2.38 *
Nervonic acid (C24:cis[15]1) (m14, high dose, Table 10a): 4 *
Oleic acid (C18:cis[9]1) (m14, high dose, Table 10a): 1.82 *
Stearic acid (C18:0) (m14, high dose, Table 10a): 2.36 *
alpha-Tocopherol (m14, high dose, Table 10a): 2.2 *
erythro-Sphingoside (d18:1) (m14, high dose, Table 10a): 3.47 *
threo-Sphingosine (d18:1) (m14, high dose, Table 10a): 3.13 *
Oleic acid (C18:cis[9]1) (m14, high dose, Table 10b): 1.82^
Phosphatidylcholine (C16:0, C16:0) (m14, high dose, Table 10b): 0.83 *
Thyroxine (T4) (m14, high dose, Table 10b): 0.56 *
trans-4-Hydroxyproline (m14, high dose, Table 10b): 0.72 *
3-O-Methylsphingosine (d18:1) (m28, high dose, Table 10a): 4.4 *
5-O-Methylsphingosine (d18:1) (m28, high dose, Table 10a): 4.51 *
Cysteine (m28, high dose, Table 10a): 1.41 *
Lignoceric acid (C24:0) (m28, high dose, Table 10a): 2.11 *
Nervonic acid (C24:cis[15]1) (m28, high dose, Table 10a): 3.63 *
Oleic acid (C18:cis[9]1) (m28, high dose, Table 10a): 1.82 *
Stearic acid (C18:0) (m28, high dose, Table 10a): 2.59 *
alpha-Tocopherol (m28, high dose, Table 10a): 2.11 *
erythro-Sphingoside (d18:1) (m28, high dose, Table 10a): 3.68 *
threo-Sphingosine (d18:1) (m28, high dose, Table 10a): 3.33 *
Oleic acid (C18:cis[9]1) (m28, high dose, Table 10b): 1.82^
Phosphatidylcholine (C16:0, C16:0) (m28, high dose, Table 10b): 0.79 *
Thyroxine (T4) (m28, high dose, Table 10b): 0.74^
trans-4-Hydroxyproline (m28, high dose, Table 10b): 0.84 *

3-O-Methylsphingosine (d18:1) (m7, high dose, Table 10a): 3.59 *
5-O-Methylsphingosine (d18:1) (m7, high dose, Table 10a): 3.41 *
Cysteine (m7, high dose, Table 10a): 0.74^
Lignoceric acid (C24:0) (m7, high dose, Table 10a): 2.12 *
Nervonic acid (C24:cis[15]1) (m7, high dose, Table 10a): 2.59 *
Oleic acid (C18:cis[9]1) (m7, high dose, Table 10a): 0.95^
Stearic acid (C18:0) (m7, high dose, Table 10a): 1.34 *
alpha-Tocopherol (m7, high dose, Table 10a): 1.76 *
erythro-Sphingoside (d18:1) (m7, high dose, Table 10a): 2.91 *
threo-Sphingosine (d18:1) (m7, high dose, Table 10a): 2.91 *
Oleic acid (C18:cis[9]1) (m7, high dose, Table 10b): 0.95^
Thyroxine (T4) (m7, high dose, Table 10b): 0.11 *
trans-4-Hydroxyproline (m7, high dose, Table 10b): 0.85 *
3-O-Methylsphingosine (d18:1) (m14, high dose, Table 10a): 3.98 *
5-O-Methylsphingosine (d18:1) (m14, high dose, Table 10a): 4.75 *
Cysteine (m14, high dose, Table 10a): 1.25
Lignoceric acid (C24:0) (m14, high dose, Table 10a): 2.82 *
Nervonic acid (C24:cis[15]1) (m14, high dose, Table 10a): 3 *
Oleic acid (C18:cis[9]1) (m14, high dose, Table 10a): 0.97
Stearic acid (C18:0) (m14, high dose, Table 10a): 1.4 *
alpha-Tocopherol (m14, high dose, Table 10a): 2.66 *
erythro-Sphingoside (d18:1) (m14, high dose, Table 10a): 3.71 *
threo-Sphingosine (d18:1) (m14, high dose, Table 10a): 3.72 *
Oleic acid (C18:cis[9]1) (m14, high dose, Table 10b): 0.97^
Thyroxine (T4) (m14, high dose, Table 10b): 0.04 *
trans-4-Hydroxyproline (m14, high dose, Table 10b): 0.76 *
3-O-Methylsphingosine (d18:1) (m28, high dose, Table 10a): 4.59 *
5-O-Methylsphingosine (d18:1) (m28, high dose, Table 10a): 4.37 *
Cysteine (m28, high dose, Table 10a): 0.92^
Lignoceric acid (C24:0) (m28, high dose, Table 10a): 2.16 *
Nervonic acid (C24:cis[15]1) (m28, high dose, Table 10a): 2.23 *
Oleic acid (C18:cis[9]1) (m28, high dose, Table 10a): 0.87^
alpha-Tocopherol (m28, high dose, Table 10a): 2.18 *
erythro-Sphingoside (d18:1) (m28, high dose, Table 10a): 3.44 *
threo-Sphingosine (d18:1) (m28, high dose, Table 10a): 4.28 *
Oleic acid (C18:cis[9]1) (m28, high dose, Table 10b): 0.87 *
Phosphatidylcholine (C16:0, C16:0) (m28, high dose, Table 10b): 0.92 *
Thyroxine (T4) (m28, high dose, Table 10b): 0.02 *
trans-4-Hydroxyproline (m28, high dose, Table 10b): 0.92^
1,5-Anhydrosorbitol, ratio versus control [1]: 0.81 *
3-O-Methylsphingosine (d18:1), ratio versus control [1]: 3.59 *
5-O-Methylsphingosine (d18:1), ratio versus control [1]: 3.41 *
18-Hydroxy-11-deoxycorticosterone, ratio versus control [1]: 0.38 *
Behenic acid (C22:0), ratio versus control [1]: 2.19 *
Ceramide (d18:1, C24:0), ratio versus control [1]: 2.58 *
Ceramide (d18:1, C24:1), ratio versus control [1]: 1.88 *
Coenzyme Q9, ratio versus control [1]: 1.23
Corticosterone, ratio versus control [1]: 0.38 *
Docosapentaenoic acid (C22:cis[7, 10, 13, 16, 19]5), ratio versus control [1]: 1.16
Glucose, ratio versus control [1]: 1.02
Glycerol, polar fraction, ratio versus control [1]: 0.74 *
Isoleucine, ratio versus control [1]: 0.98
Lignoceric acid (C24:0), ratio versus control [1]: 2.12 *
Linolenic acid (C18:cis[9, 12, 15]3), ratio versus control [1]: 0.7 *
Nervonic acid (C24:cis[15]1), ratio versus control [1]: 2.59 *
Phytosphingosine, ratio versus control [1]: 2 *
Sphingomyelin (d18:1, C16:0), ratio versus control [1]: 2.24 *
Threonic acid, ratio versus control [1]: 0.72 *
Tricosanoic acid (C23:0), ratio versus control [1]: 1.93 *
alpha-Tocopherol, ratio versus control [1]: 2.26 *
erythro-Sphingosine (d18:1), ratio versus control [1]: 2.91 *
threo-Sphingosine (d18:1), ratio versus control [1]: 2.91 *
trans-4-Hydroxyproline, ratio versus control [1]: 0.85 *
1,5-Anhydrosorbitol, ratio versus control [2]: 0.98
3-O-Methylsphingosine (d18:1), ratio versus control [2]: 3.98 *
5-O-Methylsphingosine (d18:1), ratio versus control [2]: 4.75 *
18-Hydroxy-11-deoxycorticosterone, ratio versus control [2]: 0.82
Behenic acid (C22:0), ratio versus control [2]: 3.12 *
Ceramide (d18:1, C24:0), ratio versus control [2]: 2.83 *
Ceramide (d18:1, C24:1), ratio versus control [2]: 2.41 *
Choline plasmalogen (C18, C20:4), ratio versus control [2]: 1.45 *
Coenzyme Q9, ratio versus control [2]: 1.54 *
Corticosterone, ratio versus control [2]: 1.47 *
Docosapentaenoic acid (C22:cis[7, 10, 13, 16, 19]5), ratio versus control [2]: 1.17
Glucose, ratio versus control [2]: 1.11
Glycerol, polar fraction, ratio versus control [2]: 0.64 *
Isoleucine, ratio versus control [2]: 1.18 *
Lignoceric acid (C24:0), ratio versus control [2]: 2.82 *
Linolenic acid (C18:cis[9, 12, 15]3), ratio versus control [2]: 0.8 *
Nervonic acid (C24:cis[15]1), ratio versus control [2]: 3 *
Phosphatidylcholine (C18:0, C22:6), ratio versus control [2]: 0.97
Phytosphingosine, ratio versus control [2]: 3.12 *
Sphingomyelin (d18:1, C16:0), ratio versus control [2]: 2.27 *
Sphingomyelin (d18:1, C24:0), ratio versus control [2]: 1.64 *
Threonic acid, ratio versus control [2]: 0.69 *
Tricosanoic acid (C23:0), ratio versus control [2]: 2.69 *
alpha-Tocopherol, ratio versus control [2]: 3.65 *
erythro-Sphingosine (d18:1), ratio versus control [2]: 3.71 *
threo-Sphingosine (d18:1), ratio versus control [2]: 3.72 *
trans-4-Hydroxyproline, ratio versus control [2]: 0.76 *
1,5-Anhydrosorbitol, ratio versus control [3]: 1.06
3-O-Methylsphingosine (d18:1), ratio versus control [3]: 4.59 *
5-O-Methylsphingosine (d18:1), ratio versus control [3]: 4.37 *
18-Hydroxy-11-deoxycorticosterone, ratio versus control [3]: 0.24 *
Behenic acid (C22:0), ratio versus control [3]: 3.13 *
Ceramide (d18:1, C24:0), ratio versus control [3]: 2.72 *
Ceramide (d18:1, C24:1), ratio versus control [3]: 1.89 *
Coenzyme Q9, ratio versus control [3]: 2.14 *
Corticosterone, ratio versus control [3]: 0.63
Glycerol, polar fraction, ratio versus control [3]: 0.71 *
Isoleucine, ratio versus control [3]: 1.38 *
Lignoceric acid (C24:0), ratio versus control [3]: 2.16 *
Linolenic acid (C18:cis[9, 12, 15]3), ratio versus control [3]: 0.7 *
Nervonic acid (C24:cis[15]1), ratio versus control [3]: 2.23 *
Phosphatidylcholine (C18:0, C22:6), ratio versus control [3]: 1.22 *
Phytosphingosine, ratio versus control [3]: 3.11 *
Sphingomyelin (d18:1, C16:0), ratio versus control [3]: 1.92 *
Sphingomyelin (d18:1, C24:0), ratio versus control [3]: 1.41 *
Threonic acid, ratio versus control [3]: 0.69 *
Tricosanoic acid (C23:0), ratio versus control [3]: 2.5 *
alpha-Tocopherol, ratio versus control [3]: 2.04 *
erythro-Sphingosine (d18:1), ratio versus control [3]: 3.44 *
threo-Sphingosine (d18:1), ratio versus control [3]: 4.28 *
trans-4-Hydroxyproline, ratio versus control [3]: 0.92 *
Docosapentaenoic acid (C22:cis[7, 10, 13, 16, 19]5), ratio versus control (rat, in vivo): 1.24 *
Glucose, ratio versus control (rat, in vivo): 1.06 *
Phosphatidylcholine (C18:0, C22:6), ratio versus control (rat, in vivo): 1.17 *
Sphingomyelin (d18:1, C24:0), ratio versus control (rat, in vivo): 1.35 *
Stearic acid (C18:0) (rat, in vivo): 1.16 *
SMILES: Cn1cc[nH]c1=S [Methimazole]
